Experimental data published in patent US12297194B2, “N2-phenylpyrimidine-2,4-diamine compounds, and preparation methods and methods of use thereof” (BRIDGE BIOTHERAPEUTICS, INC., priority 2021, dated 2025).

Experiments:
Assay type in all cases: cell-based, murine
Ba/F3 EGFR Wild-type = Ba/F3 EGFR Wild-type (Homo sapiens, UniProt P00533); assay: CellTiter-Glo cell viability, Ba/F3 EGFR wild-type cells; conditions: 72 hours, read-out: Ba/F3 EGFR mutant cell (IC50, nM) WT
Protocol: (§1) In order to evaluate an inhibitory ability on wild-type Ba/F3 EGFR and Ba/F3 EGFR mutations in Ba/F3 cell lines by the compounds of Formula 1, the experiment was carried out as described below.
(§2) The measurement of activities on Ba/F3 cells harboring wild-type EGFR and EGFR mutants by the compounds of the present invention were determined utilizing the CELLTITER-GLO™ system from Promega, as follows. The CELLTITER-GLO™ assay is a method for measuring the ATP present in cells to determine the cell viability. Ba/F3 EGFR wild-type and Ba/F3 EGFR L858R/C797S (L/C), Ba/F3 EGFR L858R/T790M/C797S (L/T/C), Ba/F3 EGFR Del19/T790M (D/T), Ba/F3 EGFR Del19/C797S (D/C), Ba/F3 EGFR Del19/T790M/C797S (D/T/C) mutant cell lines were maintained in RPMI1640, containing […], 1% penicillin-streptomycin, […] puromycin. Cells were grown in a humidified incubator at 37° C. with […].
(§3) The analysis of an EGFR inhibitory activity by the compounds was carried out in accordance with the analysis reaction recipe below.
(§4) 2500 cells/90 μL were seeded in 96 well cell culture plate, and after 24 hours, treated with the compounds represented by Formula 1 in concentrations of 0, 0.3, 0.9, 2.7, 8.2, 24.7, 74.1, 222.2, 666.7, 2000 (nM). After the reaction of 72 hours, the plate was incubated for 30 minutes at ambient temperature, and then, was further treated with 100 μL of the CELLTITER-GLO™ reagent and was shaken for 10 minutes at ambient temperature. Finally, measurement of the luminescence values were obtained using the SPECTRAMAX™ iD3 (Molecular Devices), and the IC50 values of the compound were analyzed using the GraphPad Prism program (version 9.0.2, GraphPad Software, Inc.).

[1] = target: Ba/F3 EGFR L858R/C797S mutants (Homo sapiens, UniProt P00533, C797S/L858R, cells depend on it); assay: CellTiter-Glo cell viability, Ba/F3 EGFR L858R/C797S cells; conditions: 72 hours, read-out: Ba/F3 EGFR mutant cell (IC50, nM) L/C
Protocol: as §1, §2, §3, §4

[2] = target: Ba/F3 EGFR L858R/T790M/C797S mutants (Homo sapiens, UniProt P00533, T790M/C797S/L858R, cells depend on it); assay: CellTiter-Glo cell viability, Ba/F3 EGFR L858R/T790M/C797S cells; conditions: 72 hours, read-out: Ba/F3 EGFR mutant cell (IC50, nM) L/T/C
Protocol: as §1, §2, §3, §4

[3] = target: Ba/F3 EGFR Del19/C797S mutants (Homo sapiens, UniProt P00533, C797S, cells depend on it, form not given); assay: CellTiter-Glo cell viability, Ba/F3 EGFR Del19/C797S cells; conditions: 72 hours, read-out: Ba/F3 EGFR mutant cell (IC50, nM) D/C
Protocol: as §1, §2, §3, §4

[4] = target: Ba/F3 EGFR Del19/T790M/C797S mutants (Homo sapiens, UniProt P00533, T790M/C797S, cells depend on it, form not given); assay: CellTiter-Glo cell viability, Ba/F3 EGFR Del19/T790M/C797S cells; conditions: 72 hours, read-out: Ba/F3 EGFR mutant cell (IC50, nM) D/T/C
Protocol: as §1, §2, §3, §4

Sequence of Ba/F3 EGFR L858R/C797S mutants (P00533 whole entry C797S/L858R): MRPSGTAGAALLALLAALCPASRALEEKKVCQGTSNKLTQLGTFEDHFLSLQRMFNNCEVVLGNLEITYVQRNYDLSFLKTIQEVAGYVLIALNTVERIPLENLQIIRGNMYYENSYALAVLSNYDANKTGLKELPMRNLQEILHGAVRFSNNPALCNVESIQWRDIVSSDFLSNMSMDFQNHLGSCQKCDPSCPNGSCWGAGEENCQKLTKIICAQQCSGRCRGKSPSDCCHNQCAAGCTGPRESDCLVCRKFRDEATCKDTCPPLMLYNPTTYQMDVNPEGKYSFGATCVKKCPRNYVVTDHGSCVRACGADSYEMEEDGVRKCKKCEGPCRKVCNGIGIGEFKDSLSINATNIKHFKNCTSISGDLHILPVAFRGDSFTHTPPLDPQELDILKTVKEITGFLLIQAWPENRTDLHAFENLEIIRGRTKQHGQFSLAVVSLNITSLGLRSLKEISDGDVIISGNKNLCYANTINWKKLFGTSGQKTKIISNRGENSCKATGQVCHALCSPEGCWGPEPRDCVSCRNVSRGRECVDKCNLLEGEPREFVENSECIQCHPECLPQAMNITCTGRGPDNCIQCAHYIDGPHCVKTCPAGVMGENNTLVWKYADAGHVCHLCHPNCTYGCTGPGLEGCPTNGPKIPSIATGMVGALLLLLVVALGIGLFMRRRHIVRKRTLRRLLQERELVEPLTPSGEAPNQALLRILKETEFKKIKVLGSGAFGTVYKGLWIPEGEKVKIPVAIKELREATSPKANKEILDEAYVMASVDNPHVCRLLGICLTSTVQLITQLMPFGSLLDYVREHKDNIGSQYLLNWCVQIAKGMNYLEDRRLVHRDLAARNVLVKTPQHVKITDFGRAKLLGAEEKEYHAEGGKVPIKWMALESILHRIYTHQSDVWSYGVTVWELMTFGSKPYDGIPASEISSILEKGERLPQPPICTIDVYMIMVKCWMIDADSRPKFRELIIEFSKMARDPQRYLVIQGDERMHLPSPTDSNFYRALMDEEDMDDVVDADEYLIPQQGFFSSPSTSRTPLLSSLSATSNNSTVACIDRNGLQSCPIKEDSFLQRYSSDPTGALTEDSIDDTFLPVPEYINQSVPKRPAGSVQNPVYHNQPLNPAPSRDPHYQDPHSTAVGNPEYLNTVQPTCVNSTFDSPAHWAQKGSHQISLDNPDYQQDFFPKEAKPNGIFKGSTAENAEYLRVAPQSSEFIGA
Sequence of Ba/F3 EGFR Del19/C797S mutants (P00533 with tags, fused parts or gaps DEL746-750/C797S, form open): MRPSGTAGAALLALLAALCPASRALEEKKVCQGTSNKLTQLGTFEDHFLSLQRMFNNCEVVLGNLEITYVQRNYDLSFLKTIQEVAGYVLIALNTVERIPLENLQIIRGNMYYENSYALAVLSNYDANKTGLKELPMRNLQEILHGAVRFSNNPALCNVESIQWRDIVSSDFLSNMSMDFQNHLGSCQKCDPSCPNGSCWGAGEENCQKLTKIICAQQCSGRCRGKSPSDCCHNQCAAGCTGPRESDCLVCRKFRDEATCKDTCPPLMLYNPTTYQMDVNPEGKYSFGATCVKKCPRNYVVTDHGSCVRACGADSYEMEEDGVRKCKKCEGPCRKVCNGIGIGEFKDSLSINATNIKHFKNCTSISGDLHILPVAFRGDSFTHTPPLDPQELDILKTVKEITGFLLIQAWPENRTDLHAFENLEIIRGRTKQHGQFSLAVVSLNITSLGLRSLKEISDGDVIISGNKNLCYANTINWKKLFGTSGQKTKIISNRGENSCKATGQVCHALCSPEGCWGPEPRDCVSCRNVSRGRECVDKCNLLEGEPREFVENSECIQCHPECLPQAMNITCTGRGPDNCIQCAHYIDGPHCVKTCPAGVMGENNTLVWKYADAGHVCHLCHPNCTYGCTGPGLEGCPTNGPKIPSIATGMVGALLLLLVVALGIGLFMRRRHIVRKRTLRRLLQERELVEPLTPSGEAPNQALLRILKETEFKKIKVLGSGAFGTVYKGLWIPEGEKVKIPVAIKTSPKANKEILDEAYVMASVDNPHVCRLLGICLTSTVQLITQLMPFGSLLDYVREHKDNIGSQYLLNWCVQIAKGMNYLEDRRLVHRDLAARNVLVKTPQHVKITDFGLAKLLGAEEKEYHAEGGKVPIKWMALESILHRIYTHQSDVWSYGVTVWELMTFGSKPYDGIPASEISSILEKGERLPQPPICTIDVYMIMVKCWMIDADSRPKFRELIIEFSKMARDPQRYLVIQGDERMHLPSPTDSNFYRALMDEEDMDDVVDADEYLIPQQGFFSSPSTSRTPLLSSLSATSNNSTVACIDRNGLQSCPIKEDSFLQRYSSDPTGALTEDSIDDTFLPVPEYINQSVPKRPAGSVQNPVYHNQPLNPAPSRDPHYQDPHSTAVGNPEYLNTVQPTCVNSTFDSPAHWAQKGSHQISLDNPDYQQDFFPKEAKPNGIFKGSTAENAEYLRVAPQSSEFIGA
Sequence of Ba/F3 EGFR L858R/T790M/C797S mutants (P00533 whole entry T790M/C797S/L858R): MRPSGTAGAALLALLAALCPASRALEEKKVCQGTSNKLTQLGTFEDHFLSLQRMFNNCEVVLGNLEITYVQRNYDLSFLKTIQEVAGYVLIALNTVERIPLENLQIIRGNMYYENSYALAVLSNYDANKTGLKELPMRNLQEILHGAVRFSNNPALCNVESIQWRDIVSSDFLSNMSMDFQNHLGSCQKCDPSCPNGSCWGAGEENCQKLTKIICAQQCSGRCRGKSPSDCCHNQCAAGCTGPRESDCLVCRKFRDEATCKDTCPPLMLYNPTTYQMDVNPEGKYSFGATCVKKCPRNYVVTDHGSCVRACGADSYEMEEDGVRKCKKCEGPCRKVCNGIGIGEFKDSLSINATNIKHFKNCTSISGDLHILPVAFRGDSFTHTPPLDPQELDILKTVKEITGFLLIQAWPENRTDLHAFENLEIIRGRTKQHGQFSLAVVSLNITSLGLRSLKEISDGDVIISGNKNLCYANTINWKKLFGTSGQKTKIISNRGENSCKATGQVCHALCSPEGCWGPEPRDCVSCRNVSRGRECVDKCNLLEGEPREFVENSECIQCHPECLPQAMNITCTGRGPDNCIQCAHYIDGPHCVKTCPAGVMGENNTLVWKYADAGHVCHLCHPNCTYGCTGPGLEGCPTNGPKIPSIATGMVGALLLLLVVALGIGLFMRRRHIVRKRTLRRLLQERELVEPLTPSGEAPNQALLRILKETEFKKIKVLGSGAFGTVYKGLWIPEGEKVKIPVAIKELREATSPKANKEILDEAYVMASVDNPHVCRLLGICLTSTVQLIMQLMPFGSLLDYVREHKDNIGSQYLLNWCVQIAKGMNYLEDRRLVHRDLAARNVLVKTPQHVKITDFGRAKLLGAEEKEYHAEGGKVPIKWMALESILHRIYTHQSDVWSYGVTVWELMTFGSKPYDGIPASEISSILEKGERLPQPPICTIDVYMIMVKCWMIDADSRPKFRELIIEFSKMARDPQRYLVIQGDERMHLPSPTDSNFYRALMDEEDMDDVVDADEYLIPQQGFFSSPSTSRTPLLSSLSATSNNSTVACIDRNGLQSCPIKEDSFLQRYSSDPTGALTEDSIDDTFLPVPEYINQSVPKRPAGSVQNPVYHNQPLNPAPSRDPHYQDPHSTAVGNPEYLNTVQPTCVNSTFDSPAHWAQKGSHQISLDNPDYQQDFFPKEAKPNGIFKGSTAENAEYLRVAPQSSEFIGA
Sequence of Ba/F3 EGFR Del19/T790M/C797S mutants (P00533 with tags, fused parts or gaps DEL746-750/T790M/C797S, form open): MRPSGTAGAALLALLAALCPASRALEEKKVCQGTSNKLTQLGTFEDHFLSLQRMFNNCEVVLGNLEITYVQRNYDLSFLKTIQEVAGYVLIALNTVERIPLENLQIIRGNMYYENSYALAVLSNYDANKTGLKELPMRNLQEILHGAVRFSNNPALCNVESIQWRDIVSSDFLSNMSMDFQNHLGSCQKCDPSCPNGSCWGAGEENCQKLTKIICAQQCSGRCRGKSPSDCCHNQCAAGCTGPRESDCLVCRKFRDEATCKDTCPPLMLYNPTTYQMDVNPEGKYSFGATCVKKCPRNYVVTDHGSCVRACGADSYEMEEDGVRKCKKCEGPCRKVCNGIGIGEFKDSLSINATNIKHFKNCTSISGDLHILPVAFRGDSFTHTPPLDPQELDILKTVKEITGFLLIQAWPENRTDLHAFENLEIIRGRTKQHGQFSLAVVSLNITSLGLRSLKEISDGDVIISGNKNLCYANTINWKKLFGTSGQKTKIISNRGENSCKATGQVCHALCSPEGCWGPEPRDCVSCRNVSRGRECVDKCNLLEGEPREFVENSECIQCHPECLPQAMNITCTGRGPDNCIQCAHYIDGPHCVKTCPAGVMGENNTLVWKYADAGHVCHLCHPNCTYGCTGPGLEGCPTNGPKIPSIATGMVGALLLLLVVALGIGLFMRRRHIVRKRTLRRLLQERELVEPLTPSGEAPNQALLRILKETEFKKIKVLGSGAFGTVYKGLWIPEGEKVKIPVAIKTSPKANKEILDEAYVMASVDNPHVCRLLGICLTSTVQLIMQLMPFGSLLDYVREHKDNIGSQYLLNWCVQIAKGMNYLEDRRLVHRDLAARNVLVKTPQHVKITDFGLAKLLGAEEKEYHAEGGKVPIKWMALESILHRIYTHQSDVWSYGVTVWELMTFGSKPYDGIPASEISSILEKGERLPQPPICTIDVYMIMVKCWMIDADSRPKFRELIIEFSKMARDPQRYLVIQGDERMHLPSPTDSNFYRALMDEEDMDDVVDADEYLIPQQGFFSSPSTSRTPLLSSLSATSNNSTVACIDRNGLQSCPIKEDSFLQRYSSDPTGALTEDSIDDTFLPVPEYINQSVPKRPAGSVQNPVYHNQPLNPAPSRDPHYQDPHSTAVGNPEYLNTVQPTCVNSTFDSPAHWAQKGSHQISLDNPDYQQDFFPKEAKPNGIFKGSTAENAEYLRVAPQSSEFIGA

| Structure (SMILES) | GI50 (Ba/F3 EGFR Wild-type) [nM] | GI50 [1] [nM] | GI50 [2] [nM] | GI50 [3] [nM] | GI50 [4] [nM] |
| --- | --- | --- | --- | --- | --- |
| COc1cc(C2CCNCC2)ccc1Nc1ncc(F)c(Nc2ccc3nccnc3c2NS(C)(=O)=O)n1 [Example B17, N-(6-((5-fluoro-2-((2-methoxy-4-(piperidin-4-yl)phenyl)amino)pyrimidin-4-yl)amino)quinoxalin-5-yl)methanesulfonamide] | > 2000 | > 2000 | > 2000 | 1250 | > 2000 |
| COc1cc(N2CCC(N3CCN(C)CC3)CC2)c(C2CC2)cc1Nc1ncc(Cl)c(Nc2ccc3nccnc3c2NS(C)(=O)=O)n1 [Example A5, N-(6-((5-chloro-2-((5-cyclopropyl-2-methoxy-4-(4-(4-methylpiperazin-1-yl)piperidin-1-yl)phenyl)amino)pyrimidin-4-yl)amino)quinoxalin-5-yl)methanesulfonamide] | 938 | 244 | 69 | 76 | 23 |
| COc1cc(N2CCC(N3CCN(C)CC3)CC2)ccc1Nc1ncc(Cl)c(Nc2ccc3nccnc3c2NS(C)(=O)=O)n1 [Example A3, N-(6-((5-chloro-2-((2-methoxy-4-(4-(4-methylpiperazin-1-yl)piperidin-1-yl)phenyl)amino)pyrimidin-4-yl)amino)quinoxalin-5-yl)methanesulfonamide] |  |  | 97.6 |  | 48 |
| CCc1cc(Nc2ncc(F)c(Nc3ccc4nccnc4c3NS(C)(=O)=O)n2)c(OC)cc1N1CCC(N2CCN(C)CC2)CC1 [Example A9, N-(6-((2-((5-ethyl-2-methoxy-4-(4-(4-methylpiperazin-1-yl)piperidin-1-yl)phenyl)amino)-5-fluoropyrimidin-4-yl)amino)quinoxalin-5-yl)methanesulfonamide] | 524 | 106 | 80 | 15 | 62 |
| CCc1cc(Nc2ncc(Br)c(Nc3ccc4nccnc4c3NS(C)(=O)=O)n2)c(OC)cc1N1CCC(N(C)C)CC1 [Example B2, N-(6-((5-bromo-2-((4-(4-(dimethylamino)piperidin-1-yl)-5-ethyl-2-methoxyphenyl)amino)pyrimidin-4-yl)amino)quinoxalin-5-yl)methanesulfonamide] | 2100 | 195 | 13 | 28 | 7 |
| COc1cc(N2CCC(N(C)C)CC2)ccc1Nc1ncc(Br)c(Nc2ccc3nccnc3c2NS(C)(=O)=O)n1 [Example B3, N-(6-((5-bromo-2-((4-(4-(dimethylamino)piperidin-1-yl)-2-methoxyphenyl)amino)pyrimidin-4-yl)amino)quinoxalin-5-yl)methanesulfonamide] | 725 | 325 | 86 | 147 | 30 |
| CNc1cc(N2CCC(N3CCN(C)CC3)CC2)c(C)cc1Nc1ncc(Cl)c(Nc2ccc3nccnc3c2NS(C)(=O)=O)n1 [Example A13, N-(6-((5-chloro-2-((5-methyl-2-(methylamino)-4-(4-(4-methylpiperazin-1-yl)piperidin-1-yl)phenyl)amino)pyrimidin-4-yl)amino)quinoxalin-5-yl)methanesulfonamide] | > 2000 | 646 | 338 | 265 | 109 |
| COc1cc(N2CCC(N3CCN(C)CC3)CC2)c(C)cc1Nc1ncc(Cl)c(Nc2ccc3nccnc3c2NS(=O)(=O)C2CC2)n1 [Example A26, N-(6-((5-chloro-2-((2-methoxy-5-methyl-4-(4-(4-methylpiperazin-1-yl)piperidin-1-yl)phenyl)amino)pyrimidin-4-yl)amino)quinoxalin-5-yl)cyclopropanesulfonamide] | 1280 | 163 | 107 | 72 | 79 |
| COc1cc(N2CCC(N(C)C)CC2)c(C)cc1Nc1ncc(Cl)c(Nc2ccc3nccnc3c2NS(C)(=O)=O)n1 [Example B4, N-(6-((5-chloro-2-((4-(4-(dimethylamino)piperidin-1-yl)-2-methoxy-5-methylphenyl)amino)pyrimidin-4-yl)amino)quinoxalin-5-yl)methanesulfonamide] | 10 | 14 | 9 | 9 | 4 |
| CC(C)Oc1cc(C2CCNCC2)ccc1Nc1ncc(Cl)c(Nc2ccc3nccnc3c2NS(C)(=O)=O)n1 [Example B22, N-(6-((5-chloro-2-((2-isopropoxy-4-(piperidin-4-yl)phenyl)amino)pyrimidin-4-yl)amino)103quinoxaline-5-yl)methanesulfonamide] | > 2000 | > 2000 | > 2000 |  | > 2000 |
| COc1cc(N2CCC(N3CCN(C)CC3)CC2)c(C(F)(F)F)cc1Nc1ncc(Cl)c(Nc2ccc3nccnc3c2NS(C)(=O)=O)n1 [Example A7, N-(6-((5-chloro-2-((2-methoxy-4-(4-(4-methylpiperazin-1-yl)piperidin-1-yl)-5-(trifluoromethyl)phenyl)amino)pyrimidin-4-yl)amino)quinoxalin-5-yl)methanesulfonamide] | 602 | 246 | 169 | 96 | 36 |
| CCc1cc(Nc2ncc(Cl)c(Nc3ccc4nccnc4c3NS(C)(=O)=O)n2)c(OC)cc1N1CCC(N(C)C)CC1 [Example B5, N-(6-((5-chloro-2-((4-(4-(dimethylamino)piperidin-1-yl)-5-ethyl-2-methoxyphenyl)amino)pyrimidin-4-yl)amino)quinoxalin-5-yl)methanesulfonamide] | 1860 | 223 | 36 | 30 | 14 |
| COc1cc(N2CCC(N3CCN(C)CC3)CC2)c(C)cc1Nc1ncc(F)c(Nc2ccc3nccnc3c2NS(C)(=O)=O)n1 [Example A22, N-(6-((5-fluoro-2-((2-methoxy-5-methyl-4-(4-(4-methylpiperazin-1-yl)piperidin-1-yl)phenyl)amino)pyrimidin-4-yl)amino)quinoxalin-5-yl)methanesulfonamide] | 521 | 189 | 369 | 73 | 189 |
| CCc1cc(Nc2ncc(Br)c(Nc3ccc4nccnc4c3NS(C)(=O)=O)n2)c(OC)cc1N1CCC(N2CCN(C)CC2)CC1 [Example A8, N-(6-((5-bromo-2-((5-ethyl-2-methoxy-4-(4-(4-methylpiperazin-1-yl)piperidin-1-yl)phenyl)amino)pyrimidin-4-yl)amino)quinoxalin-5-yl)methanesulfonamide] | 919 | 147 | 18 | 38 | 6 |
| COc1cc(N2CCC(N(C)C)CC2)c(C)cc1Nc1ncc(C(F)(F)F)c(Nc2ccc3nccnc3c2NS(C)(=O)=O)n1 [Example B9, N-(6-((2-((4-(4-(dimethylamino)piperidin-1-yl)-2-methoxy-5-methylphenyl)amino)-5-(trifluoromethyl)pyrimidin-4-yl)amino)quinoxalin-5-yl) methane sulfonamide] | > 2000 | > 2000 | > 2000 | > 2000 | > 2000 |
| COc1cc(N2CCOCC2)c(C)cc1Nc1ncc(Br)c(Nc2ccc3nccnc3c2NS(C)(=O)=O)n1 [Example B10, N-(6-((5-bromo-2-((2-methoxy-5-methyl-4-morpholinophenyl)amino)pyrimidin-4-yl)amino)quinoxalin-5-yl)methanesulfonamide] | 858 | 678 | 584 | 537 | 252 |
| COc1cc(N2CCC(N3CCN(C)CC3)CC2)c(C)cc1Nc1ncc(C(F)(F)F)c(Nc2ccc3nccnc3c2NS(C)(=O)=O)n1 [Example A20, N-(6-((2-((2-methoxy-5-methyl-4-(4-(4-methylpiperazin-1-yl)piperidin-1-yl)phenyl)amino)-5-(trifluoromethyl)pyrimidin-4-yl)amino)quinoxalin-5-yl)methane sulfonamide] | > 2000 | > 2000 | > 2000 | > 2000 | 1590 |
